Source: PubChem BioAssay AID260 (DTP/NCI, 2004)
Several values for one entry are separate records, joined by “and”; a condition that tells them apart may be missing. Identical values can stand only once. Inconclusive results and toxic doses are left out.

Tested on: CD2F1 mice, intracerebral L1210 leukemia, survival T/C
Assay: NCI In Vivo Anticancer Drug Screen. Data for tumor model L1210 Leukemia (intracerebral) in CD2F1 (CDF1) mice
Details: higher = longer survival
Description: The antitumor activity of compounds was measured in mice bearing transplantable tumors. Survival or tumor size were measured and the results are expressed as the measurement made in the treated group (T) divided by the measurement made in the vehicle treated control group (C). The tumor model used in this assay is L1210 Leukemia (intracerebral) in CD2F1 (CDF1) mice

[1] = endpoint: median survival time, dose: 16.0 mg/kg/injection, schedule: Q01DX005 (ip), vehicle: saline with Tween-80
[2] = endpoint: median survival time, dose: 64.0 mg/kg/injection, schedule: Q01DX005 (ip), vehicle: saline with Tween-80
[3] = endpoint: median survival time, dose: 128.0 mg/kg/injection, schedule: Q01DX005 (ip), vehicle: saline with Tween-80
[4] = endpoint: mean survival time, dose: 2.0 mg/kg/injection, schedule: Q01DX009 (ip), vehicle: saline
[5] = endpoint: mean survival time, dose: 4.0 mg/kg/injection, schedule: Q01DX009 (ip), vehicle: saline

CCCN(C)C(=O)N(CCCl)N=O
T/C (endpoint: median survival time, dose: 15.6 mg/kg/injection, schedule: Q01DX001 (ip), vehicle: DMSO): 166 % of control | T/C (endpoint: median survival time, dose: 15.6 mg/kg/injection, schedule: Q01DX001 (oral), vehicle: saline + alcohol): 113 % of control | T/C (endpoint: median survival time, dose: 31.3 mg/kg/injection, schedule: Q01DX001 (ip), vehicle: saline + alcohol): 172 % of control | T/C (endpoint: median survival time, dose: 31.3 mg/kg/injection, schedule: Q01DX001 (oral), vehicle: saline + alcohol): 154 % of control | T/C (endpoint: median survival time, dose: 62.5 mg/kg/injection, schedule: Q01DX001 (ip), vehicle: saline + alcohol): 389 % of control | T/C (endpoint: median survival time, dose: 62.5 mg/kg/injection, schedule: Q01DX001 (oral), vehicle: saline + alcohol): 271 % of control | T/C (endpoint: median survival time, dose: 125.0 mg/kg/injection, schedule: Q01DX001 (ip), vehicle: saline + alcohol): 198 % of control | T/C (endpoint: median survival time, dose: 125.0 mg/kg/injection, schedule: Q01DX001 (oral), vehicle: saline + alcohol): 490 % of control | T/C (endpoint: median survival time, dose: 250.0 mg/kg/injection, schedule: Q01DX001 (ip), vehicle: DMSO): 169 % of control | T/C (endpoint: median survival time, dose: 250.0 mg/kg/injection, schedule: Q01DX001 (ip), vehicle: saline + alcohol): 116 % of control | T/C (endpoint: median survival time, dose: 250.0 mg/kg/injection, schedule: Q01DX001 (oral), vehicle: saline + alcohol): 97 % of control

C#CCN(C)/N=N/c1nc[nH]c1C(N)=O
T/C [1]: 118 % of control | T/C [2]: 124 % of control | T/C [3]: 120 % of control

C=CCN(C)N=Nc1ccc(C(N)=O)cc1
T/C (endpoint: mean survival time, dose: 25.0 mg/kg/injection, schedule: Q01DX009 (ip), vehicle: Klucel (hydroxypropylcellulose) (HPC)): 98 % of control | T/C (endpoint: mean survival time, dose: 50.0 mg/kg/injection, schedule: Q01DX009 (ip), vehicle: Klucel (hydroxypropylcellulose) (HPC)): 108 % of control | T/C (endpoint: mean survival time, dose: 100.0 mg/kg/injection, schedule: Q01DX009 (ip), vehicle: Klucel (hydroxypropylcellulose) (HPC)): 118 % of control | T/C (endpoint: mean survival time, dose: 200.0 mg/kg/injection, schedule: Q01DX009 (ip), vehicle: Klucel (hydroxypropylcellulose) (HPC)): 118 % of control

CCC(C)N(C)/N=N/c1nc[nH]c1C(N)=O (configuration not stated)
T/C [1]: 105 % of control | T/C (endpoint: median survival time, dose: 32.0 mg/kg/injection, schedule: Q01DX005 (ip), vehicle: saline with Tween-80): 105 % of control | T/C [2]: 116 % of control | T/C [3]: 116 % of control

O=C1C(NCCO)=C(N2CC2)C(=O)C(NCCO)=C1N1CC1
T/C (endpoint: mean survival time, dose: 0.37 mg/kg/injection, schedule: Q01DX009 (ip), vehicle: saline): 111 % of control | T/C (endpoint: mean survival time, dose: 1.5 mg/kg/injection, schedule: Q01DX009 (ip), vehicle: saline): 119 % of control and 122 % of control

C[C@@H](CN1CC(=O)NC(=O)C1)N1CC(=O)NC(=O)C1
T/C (endpoint: mean survival time, dose: 64.0 mg/kg/injection, schedule: Q01DX009 (ip), vehicle: water): 164 % of control | T/C (endpoint: mean survival time, dose: 256.0 mg/kg/injection, schedule: Q01DX009 (ip), vehicle: water): 111 % of control | T/C (endpoint: mean survival time, dose: 512.0 mg/kg/injection, schedule: Q01DX009 (ip), vehicle: water): 100 % of control

CC[n+]1ccc(Nc2ccc(NC(=O)c3ccc(Nc4cc[n+](CC)c5ccc(N)cc45)cc3)cc2)cc1
T/C [4]: 110 % of control | T/C [5]: 111 % of control

C[n+]1c2ccccc2nc2c(N)cc(N)cc21
T/C (endpoint: median survival time, dose: 4.0 mg/kg/injection, schedule: Q01DX005 (ip), vehicle: suspension in saline): 93 % of control and 98 % of control | T/C (endpoint: median survival time, dose: 8.0 mg/kg/injection, schedule: Q01DX005 (ip), vehicle: suspension in saline): 102 % of control | T/C (endpoint: median survival time, dose: 16.0 mg/kg/injection, schedule: Q01DX005 (ip), vehicle: suspension in saline): 96 % of control and 98 % of control | T/C (endpoint: median survival time, dose: 32.0 mg/kg/injection, schedule: Q01DX005 (ip), vehicle: suspension in saline): 96 % of control and 97 % of control

S=P(N1CC1)(N1CC1)N1CC1
T/C (endpoint: mean survival time, dose: 0.25 mg/kg/injection, schedule: Q01DX009 (ip), vehicle: saline): 100 % of control and 104 % of control and 112 % of control | T/C (endpoint: mean survival time, dose: 0.5 mg/kg/injection, schedule: Q01DX009 (ip), vehicle: saline): 102 % of control and 106 % of control (2×) | T/C (endpoint: mean survival time, dose: 1.0 mg/kg/injection, schedule: Q01DX009 (ip), vehicle: saline): 104 % of control and 106 % of control and 114 % of control | T/C [4]: 124 % of control | T/C [5]: 158 % of control and 162 % of control and 168 % of control | T/C (endpoint: mean survival time, dose: 8.0 mg/kg/injection, schedule: Q01DX009 (ip), vehicle: saline): 86 % of control

O=[N+]([O-])O.[Ga]
T/C (endpoint: median survival time, dose: 32.0 mg/kg/injection, schedule: Q01DX005 (ip), vehicle: saline): 101 % of control | T/C (endpoint: median survival time, dose: 64.0 mg/kg/injection, schedule: Q01DX005 (ip), vehicle: saline): 103 % of control and 107 % of control | T/C (endpoint: median survival time, dose: 128.0 mg/kg/injection, schedule: Q01DX005 (ip), vehicle: saline): 102 % of control

COC(=O)c1ccccc1N=NN(C)C
T/C (endpoint: mean survival time, dose: 2.5 mg/kg/injection, schedule: Q01DX007 (ip), vehicle: other): 91 % of control | T/C (endpoint: mean survival time, dose: 5.0 mg/kg/injection, schedule: Q01DX007 (ip), vehicle: other): 100 % of control | T/C (endpoint: mean survival time, dose: 10.0 mg/kg/injection, schedule: Q01DX007 (ip), vehicle: other): 106 % of control

CN(C)c1nc(N(C)C)nc(N(C)C)n1
T/C (endpoint: median survival time, dose: 100.0 mg/kg/injection, schedule: Q01DX005 (ip), vehicle: saline with Tween-80): 121 % of control | T/C (endpoint: median survival time, dose: 100.0 mg/kg/injection, schedule: Q01DX005 (ip), vehicle: suspension in saline): 102 % of control | T/C (endpoint: median survival time, dose: 200.0 mg/kg/injection, schedule: Q01DX005 (ip), vehicle: saline with Tween-80): 101 % of control | T/C (endpoint: median survival time, dose: 200.0 mg/kg/injection, schedule: Q01DX005 (ip), vehicle: suspension in saline): 101 % of control | T/C (endpoint: median survival time, dose: 400.0 mg/kg/injection, schedule: Q01DX005 (ip), vehicle: suspension in saline): 100 % of control | T/C (endpoint: median survival time, dose: 800.0 mg/kg/injection, schedule: Q01DX005 (ip), vehicle: suspension in saline): 118 % of control

C[C@@H]1C[C@@H]([C@H](O)CC2CC(=O)NC(=O)C2)C(=O)[C@@H](C)C1
T/C (endpoint: mean survival time, dose: 10.0 mg/kg/injection, schedule: Q01DX009 (ip), vehicle: saline): 114 % of control | T/C (endpoint: mean survival time, dose: 20.0 mg/kg/injection, schedule: Q01DX009 (ip), vehicle: saline): 101 % of control | T/C (endpoint: mean survival time, dose: 40.0 mg/kg/injection, schedule: Q01DX009 (ip), vehicle: saline): 114 % of control | T/C (endpoint: mean survival time, dose: 80.0 mg/kg/injection, schedule: Q01DX009 (ip), vehicle: saline): 106 % of control

O=C1C(N2CC2)=C(N2CCCC(O)C2)C(=O)C(N2CC2)=C1N1CCCC(O)C1 (configuration not stated)
T/C (endpoint: mean survival time, dose: 2.0 mg/kg/injection, schedule: Q04DX003 (ip), vehicle: saline): 103 % of control and 110 % of control | T/C (endpoint: mean survival time, dose: 4.0 mg/kg/injection, schedule: Q04DX003 (ip), vehicle: saline): 121 % of control and 110 % of control | T/C (endpoint: mean survival time, dose: 6.0 mg/kg/injection, schedule: Q04DX003 (ip), vehicle: saline): 114 % of control | T/C (endpoint: mean survival time, dose: 8.0 mg/kg/injection, schedule: Q04DX003 (ip), vehicle: saline): 114 % of control

O=NN(CCCl)C(=O)NC1CCCCC1
T/C (endpoint: median survival time, dose: 4.0 mg/kg/injection, schedule: Q01DX001 (ip), vehicle: other): 112 % of control | T/C (endpoint: median survival time, dose: 8.0 mg/kg/injection, schedule: Q01DX001 (ip), vehicle: saline + alcohol): 106 % of control | T/C (endpoint: median survival time, dose: 16.0 mg/kg/injection, schedule: Q01DX001 (ip), vehicle: other): 177 % of control | T/C (endpoint: median survival time, dose: 16.0 mg/kg/injection, schedule: Q01DX001 (ip), vehicle: saline + alcohol): 118 % of control | T/C (endpoint: median survival time, dose: 32.0 mg/kg/injection, schedule: Q01DX001 (ip), vehicle: other): 415 % of control | T/C (endpoint: median survival time, dose: 64.0 mg/kg/injection, schedule: Q01DX001 (ip), vehicle: saline + alcohol): 389 % of control | T/C (endpoint: median survival time, dose: 128.0 mg/kg/injection, schedule: Q01DX001 (ip), vehicle: saline + alcohol): 168 % of control | T/C (endpoint: median survival time, dose: 256.0 mg/kg/injection, schedule: Q01DX001 (ip), vehicle: saline + alcohol): 90 % of control

O=CC(NC(=O)N(CCCl)N=O)C(O)C(O)C(O)CO (configuration not stated)
T/C (endpoint: median survival time, dose: 3.13 mg/kg/injection, schedule: Q01DX001 (ip), vehicle: saline): 103 % of control | T/C (endpoint: median survival time, dose: 6.25 mg/kg/injection, schedule: Q01DX001 (ip), vehicle: saline): 106 % of control | T/C (endpoint: median survival time, dose: 12.5 mg/kg/injection, schedule: Q01DX001 (ip), vehicle: saline): 122 % of control | T/C (endpoint: median survival time, dose: 25.0 mg/kg/injection, schedule: Q01DX001 (ip), vehicle: DMSO): 152 % of control | T/C (endpoint: median survival time, dose: 50.0 mg/kg/injection, schedule: Q01DX001 (ip), vehicle: DMSO): 95 % of control | T/C (endpoint: median survival time, dose: 50.0 mg/kg/injection, schedule: Q01DX001 (ip), vehicle: saline): 92 % of control | T/C (endpoint: median survival time, dose: 50.0 mg/kg/injection, schedule: Q01DX001 (oral), vehicle: saline): 97 % of control

COc1ccc(C(=O)/C(Br)=C/C(=O)O)cc1
T/C (endpoint: median survival time, dose: 10.0 mg/kg/injection, schedule: Q01DX005 (ip), vehicle: saline): 98 % of control | T/C (endpoint: median survival time, dose: 20.0 mg/kg/injection, schedule: Q01DX005 (ip), vehicle: saline): 100 % of control | T/C (endpoint: median survival time, dose: 40.0 mg/kg/injection, schedule: Q01DX005 (ip), vehicle: saline): 105 % of control
